Assays:
[1] = molecular target: JAK3 (Homo sapiens (Human), UniProt P52333); assay: Biochemical JAK kinase assay (LanthaScreen), JAK3; conditions: converted from pIC50 with Cheng-Prusoff equation
Experimental: (§1) Assay 1: Biochemical JAK Kinase Assays
(§2) A panel of four LanthaScreen JAK biochemical assays (JAK1, 2, 3 and Tyk2) were carried in a common kinase reaction buffer (50 mM HEPES, pH 7.5, 0.01% Brij-35, 10 mM MgCl2, and 1 mM EGTA). Recombinant GST-tagged JAK enzymes and a GFP-tagged STAT1 peptide substrate were obtained from Life Technologies.
(§3) Serially diluted compounds were pre-incubated with each of the four JAK enzymes and the substrate in white 384-well microplates (Corning) at ambient temperature for 1 h. ATP was subsequently added to initiate the kinase reactions in 10 μL total volume, with 1% DMSO. […] The plates were allowed to incubate at ambient temperature for 1 h before being read on the EnVision reader (Perkin Elmer).
(§4) For dose-response analysis, percent inhibition data were plotted vs. compound concentrations, and IC50 values were determined from a 4-parameter robust fit model with the Prism software (GraphPad Software). Results were expressed as pIC50 (negative logarithm of IC50) and subsequently converted to pKi (negative logarithm of dissociation constant, Ki) using the Cheng-Prusoff equation.

[2] = molecular target: JAK1 (Homo sapiens (Human), UniProt P23458); assay: Biochemical JAK kinase assay (LanthaScreen), JAK1; conditions: converted from pIC50 with Cheng-Prusoff equation
Sequence of JAK1 (P23458 whole entry): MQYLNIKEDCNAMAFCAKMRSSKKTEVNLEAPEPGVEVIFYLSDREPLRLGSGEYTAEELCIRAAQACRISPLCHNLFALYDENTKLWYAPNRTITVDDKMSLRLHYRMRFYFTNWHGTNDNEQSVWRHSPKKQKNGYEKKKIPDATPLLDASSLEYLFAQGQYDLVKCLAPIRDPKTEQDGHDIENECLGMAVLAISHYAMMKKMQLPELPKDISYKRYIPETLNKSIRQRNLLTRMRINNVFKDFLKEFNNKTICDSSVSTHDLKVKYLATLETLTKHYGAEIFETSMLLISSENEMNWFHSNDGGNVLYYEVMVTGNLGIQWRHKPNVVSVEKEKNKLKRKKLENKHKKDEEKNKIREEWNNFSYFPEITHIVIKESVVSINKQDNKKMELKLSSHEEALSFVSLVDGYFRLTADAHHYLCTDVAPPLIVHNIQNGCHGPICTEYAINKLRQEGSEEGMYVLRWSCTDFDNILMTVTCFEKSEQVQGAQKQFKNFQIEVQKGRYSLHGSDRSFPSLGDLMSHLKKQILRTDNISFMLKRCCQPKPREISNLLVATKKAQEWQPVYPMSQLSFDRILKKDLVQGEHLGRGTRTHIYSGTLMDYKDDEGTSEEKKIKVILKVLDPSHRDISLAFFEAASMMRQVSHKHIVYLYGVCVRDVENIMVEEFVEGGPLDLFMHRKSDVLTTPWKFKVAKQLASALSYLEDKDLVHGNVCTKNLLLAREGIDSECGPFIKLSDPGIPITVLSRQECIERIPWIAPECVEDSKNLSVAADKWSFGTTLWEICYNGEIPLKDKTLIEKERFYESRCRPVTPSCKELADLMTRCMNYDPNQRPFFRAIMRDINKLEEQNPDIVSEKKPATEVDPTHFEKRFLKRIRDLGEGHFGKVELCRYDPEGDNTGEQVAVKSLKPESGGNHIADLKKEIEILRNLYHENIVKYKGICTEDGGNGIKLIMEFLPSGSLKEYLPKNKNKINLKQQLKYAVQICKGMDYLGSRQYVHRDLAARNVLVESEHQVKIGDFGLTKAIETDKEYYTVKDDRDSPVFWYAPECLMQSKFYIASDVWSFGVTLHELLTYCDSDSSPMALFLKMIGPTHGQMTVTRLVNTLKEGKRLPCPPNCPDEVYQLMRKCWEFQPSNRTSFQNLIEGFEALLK
Experimental: as §1, §2, §3, §4

[3] = tested on: IL-13 induced pSTAT6 induction in lung tissue; assay: Murine model of IL-13 induced pSTAT6 induction in lung tissue; format: in vivo; conditions: mouse lung, 1 mg/mL 50 μL oral aspiration, IL-13 challenge 4 h after dose, lungs at 5 hours
Description: Assay 4: Murine (Mouse) Model of IL-13 Induced pSTAT6 Induction in Lung Tissue
Il-13 is an important cytokine underlying the pathophysiology of asthma (Kudlacz et al. Eur. J. Pharmacol, 2008, 582,154-161). IL-13 binds to cell surface receptors activating members of the Janus family of kinases (JAK) which then phosphorylate STAT6 and subsequently activates further transcription pathways. In the described model, a dose of IL-13 was delivered locally into the lungs of mice to induce the phosphorylation of STAT6 (pSTAT6) which is then measured as the endpoint.
Adult balb/c mice from Harlan were used in the assay. On the day of study, animals were lightly anesthetized with isoflurane and administered either vehicle or test compound (1 mg/mL, 50 μL total volume over several breaths) via oral aspiration. Animals were placed in lateral recumbency post dose and monitored for full recovery from anesthesia before being returned to their home cage. Four hours later, animals were once again briefly anesthetized and challenged with either vehicle or IL-13 (0.03 μg total dose delivered, 50 μL total volume) via oral aspiration before being monitored for recovery from anesthesia and returned to their home cage. One hour after vehicle or IL-13 administration, lungs were collected for both pSTAT6 detection using an anti-pSTAT6 ELISA (rabbit mAb capture/coating antibody; mouse mAb detection/report antibody: anti-pSTAT6-pY641; secondary antibody: anti-mouse IgG-HRP) and analyzed for total drug concentration as described above in Assay 3.
Selected compounds of the invention were tested in the assay. Activity in the model is evidenced by a decrease in the level of pSTAT6 present in the lungs of treated animals at 5 hours compared to the vehicle treated, IL-13 challenged control animals. The difference between the control animals which were vehicle-treated, IL-13 challenged and the control animals which were vehicle-treated, vehicle challenged dictated the 0% and 100% inhibitory effect, respectively, in any given experiment.

[4] = tested on: IL-13 induced STAT6 phosphorylation in BEAS-2B human lung epithelial cells; assay: Cellular JAKI potency assay (AlphaScreen), BEAS-2B; format: cell-based; conditions: BEAS-2B cells
Experimental: Assay 2: Cellular JAKI Potency Assay
The AlphaScreen JAKI cellular potency assay was carried out by measuring interleukin-13 (IL-13, R&D Systems) induced STAT6 phosphorylation in BEAS-2B human lung epithelial cells (ATCC). The anti-STAT6 antibody (Cell Signaling Technologies) was conjugated to AlphaScreen acceptor beads (Perkin Elmer), while the anti-pSTAT6 (pTyr641) antibody (Cell Signaling Technologies) was biotinylated using EZ-Link Sulfo-NHS-Biotin (Thermo Scientific).
BEAS-2B cells were grown at 37° C. in a 5% CO2 humidified incubator in 50% DMEM/50% F-12 medium (Life Technologies) supplemented with 10% FBS (Hyclone), 100 U/mL penicillin, 100 μg/mL streptomycin (Life Technologies), and 2 mM GlutaMAX (Life Technologies). On day 1 of the assay, cells were seeded at a 7,500 cells/well density in white poly-D-lysine-coated 384-well plates (Corning) with 25 μL medium, and were allowed to adhere overnight in the incubator. On day 2 of the assay, the medium was removed and replaced with 12 μL of assay buffer (Hank's Balanced Salt Solution/HBSS, 25 mM HEPES, and 1 mg/ml bovine serum albumin/BSA) containing dose-responses of test compounds. Compounds were serially diluted in DMSO and then diluted another 1000-fold in media to bring the final DMSO concentration to 0.1%. Cells were incubated with test compounds at 37° C. for 1 h, and followed by the addition of 12 μl of pre-warmed IL-13 (80 ng/mL in assay buffer) for stimulation. After incubating at 37° C. for 30 min, the assay buffer (containing compound and IL-13) was removed, and 10 μL of cell lysis buffer (25 mM HEPES, 0.1% SDS, 1% NP-40, 5 mM MgCl2, 1.3 mM EDTA, 1 mM EGTA, and supplement with Complete Ultra mini protease inhibitors and PhosSTOP from Roche Diagnostics). The plates were shaken at ambient temperature for 30 min before the addition of detection reagents. A mixture of biotin-anti-pSTAT6 and anti-STAT6 conjugated acceptor beads was added first and incubated at ambient temperature for 2 h, followed by the addition of streptavidin conjugated donor beads (Perkin Elmer). After a minimum of 2 h incubation, the assay plates were read on the EnVision plate reader. AlphaScreen luminescence signals were recorded and utilized to calculate the percent inhibition values based on DMSO and background controls.
For dose-response analysis, percent inhibition data were plotted vs. compound concentrations, and IC50 values were determined from a 4-parameter robust fit model with the Prism software. Results may also be expressed as the negative logarithm of the IC50 value, pIC50.
Test compounds having a lower IC50 value or higher pIC50 value in this assay show greater inhibition of IL-13 induced STAT6 phosphorylation.

[5] = molecular target: JAK2 (Homo sapiens (Human), UniProt O60674); assay: Biochemical JAK kinase assay (LanthaScreen), JAK2; conditions: converted from pIC50 with Cheng-Prusoff equation
Sequence of JAK2 (O60674 whole entry): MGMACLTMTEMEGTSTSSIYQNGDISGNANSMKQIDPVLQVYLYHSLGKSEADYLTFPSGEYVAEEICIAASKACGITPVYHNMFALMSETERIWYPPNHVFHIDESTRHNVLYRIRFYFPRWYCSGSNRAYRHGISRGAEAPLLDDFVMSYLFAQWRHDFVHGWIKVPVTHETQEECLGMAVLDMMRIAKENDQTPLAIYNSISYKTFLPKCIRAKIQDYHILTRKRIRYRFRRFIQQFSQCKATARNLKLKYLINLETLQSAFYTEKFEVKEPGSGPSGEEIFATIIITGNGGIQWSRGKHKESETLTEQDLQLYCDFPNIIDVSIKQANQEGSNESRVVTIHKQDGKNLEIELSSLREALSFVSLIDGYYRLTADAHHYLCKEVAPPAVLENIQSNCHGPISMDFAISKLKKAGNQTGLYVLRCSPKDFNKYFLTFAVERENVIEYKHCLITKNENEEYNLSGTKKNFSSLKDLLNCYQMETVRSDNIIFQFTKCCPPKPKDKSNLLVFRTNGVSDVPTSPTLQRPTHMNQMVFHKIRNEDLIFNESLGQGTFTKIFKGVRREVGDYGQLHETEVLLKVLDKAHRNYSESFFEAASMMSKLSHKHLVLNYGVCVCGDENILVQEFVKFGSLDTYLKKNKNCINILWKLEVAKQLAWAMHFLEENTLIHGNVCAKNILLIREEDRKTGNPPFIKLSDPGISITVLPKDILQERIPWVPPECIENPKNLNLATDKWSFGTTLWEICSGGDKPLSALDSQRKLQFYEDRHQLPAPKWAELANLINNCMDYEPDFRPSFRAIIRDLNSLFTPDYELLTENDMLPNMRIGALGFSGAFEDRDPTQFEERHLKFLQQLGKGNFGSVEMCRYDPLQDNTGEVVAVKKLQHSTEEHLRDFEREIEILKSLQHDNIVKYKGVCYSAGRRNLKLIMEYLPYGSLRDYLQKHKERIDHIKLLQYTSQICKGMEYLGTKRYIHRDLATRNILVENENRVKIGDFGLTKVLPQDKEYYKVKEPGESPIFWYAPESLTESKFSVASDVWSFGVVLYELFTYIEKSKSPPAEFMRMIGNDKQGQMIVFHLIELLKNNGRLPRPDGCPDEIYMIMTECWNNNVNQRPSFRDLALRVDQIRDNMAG
Experimental: as §1, §2, §3, §4

Sequence of JAK3 (P52333 whole entry): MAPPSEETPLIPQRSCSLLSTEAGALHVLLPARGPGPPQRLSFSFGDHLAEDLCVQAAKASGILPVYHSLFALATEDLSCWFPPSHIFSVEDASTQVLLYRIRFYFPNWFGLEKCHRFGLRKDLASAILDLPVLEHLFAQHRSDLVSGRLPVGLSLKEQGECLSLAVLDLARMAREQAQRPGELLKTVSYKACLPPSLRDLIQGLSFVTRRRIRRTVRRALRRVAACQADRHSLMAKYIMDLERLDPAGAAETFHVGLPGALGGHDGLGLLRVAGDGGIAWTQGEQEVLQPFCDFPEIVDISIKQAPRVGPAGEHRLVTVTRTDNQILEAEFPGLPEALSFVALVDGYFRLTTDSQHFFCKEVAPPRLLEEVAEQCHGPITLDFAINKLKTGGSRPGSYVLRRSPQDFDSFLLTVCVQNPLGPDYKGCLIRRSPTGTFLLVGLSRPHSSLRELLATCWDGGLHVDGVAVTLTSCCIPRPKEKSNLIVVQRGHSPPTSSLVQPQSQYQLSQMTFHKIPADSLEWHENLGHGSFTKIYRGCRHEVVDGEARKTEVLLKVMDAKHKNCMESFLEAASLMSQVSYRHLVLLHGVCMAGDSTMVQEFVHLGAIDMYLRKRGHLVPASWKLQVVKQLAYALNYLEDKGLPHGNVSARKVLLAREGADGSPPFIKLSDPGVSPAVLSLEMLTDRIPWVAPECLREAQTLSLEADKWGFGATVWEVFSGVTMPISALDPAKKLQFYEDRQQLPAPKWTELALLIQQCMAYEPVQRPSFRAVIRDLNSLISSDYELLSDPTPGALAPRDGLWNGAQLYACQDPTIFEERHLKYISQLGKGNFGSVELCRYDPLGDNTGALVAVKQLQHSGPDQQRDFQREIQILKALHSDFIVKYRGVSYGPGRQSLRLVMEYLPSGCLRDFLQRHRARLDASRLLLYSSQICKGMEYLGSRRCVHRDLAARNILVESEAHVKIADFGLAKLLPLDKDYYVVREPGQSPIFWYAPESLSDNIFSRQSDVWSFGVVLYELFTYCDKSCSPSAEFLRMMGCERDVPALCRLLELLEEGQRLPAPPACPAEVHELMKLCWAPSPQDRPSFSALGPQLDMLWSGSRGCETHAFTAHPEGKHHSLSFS

Row | Structure (SMILES) | Ki [1] [nM] | IC50 [4] [nM] | IC50 ([4]; Homo sapiens) [nM] | further results
1 | CCc1cc(O)c(F)cc1-c1ccc2c(-c3nc4c([nH]3)CN(C(C)C)[C@H](C(=O)N3CC(N(C)C)C3)C4)n[nH]c2c1 [Example 8-7] | 0.2 | 3.1 | – | Ki [2]: 0.06 nM; pSTAT6 inhibition Assay 4 [3]: B (B represents between 40% and 60% inhibition)
2 | CCc1cc(O)c(F)cc1-c1ccc2c(-c3nc4c([nH]3)CN(C(C)C)[C@H](C(=O)N3CC(N5CCCCC5)C3)C4)n[nH]c2c1 [Example 8-6] | – | 15.8 | – | Ki [2]: 0.06 nM
3 | CCCN1Cc2[nH]c(-c3n[nH]c4cc(-c5cc(F)c(O)cc5CC)ccc34)nc2C[C@@H]1C(=O)N1CC(C)(N(C)C)C1 [Example 8-19] | – | – | 8 | –
4 | CCCN1Cc2[nH]c(-c3n[nH]c4cc(-c5cc(F)c(O)cc5CC)ccc34)nc2CC1C(=O)N1CC(C)(N(C)C)C1 (stereo not drawn) [Example 8-11] | – | – | 6.3 | –
5 | CCc1cc(O)c(F)cc1-c1ccc2c(-c3nc4c([nH]3)CN(CC)C(C(=O)N3CC(N5CCCCC5)C3)C4)n[nH]c2c1 (racemic) [Example 8-4] | – | 10 | – | –
6 | CCc1cc(O)c(F)cc1-c1ccc2c(-c3nc4c([nH]3)CN(CC)[C@@H](C(=O)N3CC(N(C)C)C3)C4)n[nH]c2c1 [Example 8-20] | 0.2 | 5 | – | –
7 | CCCN1Cc2[nH]c(-c3n[nH]c4cc(-c5cc(F)c(O)cc5CC)ccc34)nc2C[C@H]1C(=O)N1CC(C)(N(C)C)C1 [Example 8, (S)-(3-(dimethylamino)-3-methylazetidin-1-yl)(2-(6-(2-ethyl-5-fluoro-4-hydroxyphenyl)-1H-indazol-3-yl)-5-propyl-4,5,6,7-tetrahydro-3H-imidazo[4,5-c]pyridin-6-yl)methanone] | – | – | 8.5 | pSTAT6 inhibition Assay 4 [3]: B (B represents between 40% and 60% inhibition)
8 | CCc1cc(O)c(F)cc1-c1ccc2c(-c3nc4c([nH]3)CN(CC)[C@@H](C(=O)N3CC(C)(N(C)C)C3)C4)n[nH]c2c1 [Example 8-21] | – | – | 4 | –
9 | CCc1cc(O)c(F)cc1-c1ccc2c(-c3nc4c([nH]3)CN(C(C)C)[C@H](C(=O)N3CC(C)(N(C)C)C3)C4)n[nH]c2c1 [Example 8-16] | – | – | 5 | –
10 | CCc1cc(O)c(F)cc1-c1ccc2c(-c3nc4c([nH]3)CN(C(C)C)C(C(=O)N3CC(C)(N(C)C)C3)C4)n[nH]c2c1 (stereo not drawn) [Example 8-16] | – | – | – | pSTAT6 inhibition Assay 4 [3]: C (C represents between 25% and 40% inhibition)
11 | CCc1cc(O)c(F)cc1-c1ccc2c(-c3nc4c([nH]3)CN(CC)[C@H](C(=O)N3CC(N5CCCCC5)C3)C4)n[nH]c2c1 [Example 8-14, (S)-(5-ethyl-2-(6-(2-ethyl-5-fluoro-4-hydroxyphenyl)-1H-indazol-3-yl)-4,5,6,7-tetrahydro-3H-imidazo[4,5-c]pyridin-6-yl)(3-(piperidin-1-yl)azetidin-1-yl)methanone] | – | – | 12.6 | –
12 | CCc1cc(O)c(F)cc1-c1ccc2c(-c3nc4c([nH]3)CN(CC)C(C(=O)N3CC(C)(N(C)C)C3)C4)n[nH]c2c1 (stereo not drawn) [Example 8-10] | – | – | 3.2 | –
13 | CCc1cc(O)c(F)cc1-c1ccc2c(-c3nc4c([nH]3)CN(CC)[C@H](C(=O)N3CC(N(C)C)C3)C4)n[nH]c2c1 [Example 8-22, (S)-(3-(dimethylamino)azetidin-1-yl)(5-ethyl-2-(6-(2-ethyl-5-fluoro-4-hydroxyphenyl)-1H-indazol-3-yl)-4,5,6,7-tetrahydro-3H-imidazo[4,5-c]pyridin-6-yl)methanone] | 0.32 | – | 5.25 | pSTAT6 inhibition Assay 4 [3]: B (B represents between 40% and 60% inhibition)
14 | CCc1cc(O)c(F)cc1-c1ccc2c(-c3nc4c([nH]3)CN(C(C)C)[C@@H](C(=O)N3CC(N(C)C)C3)C4)n[nH]c2c1 [Example 8-17] | 0.13 | 8 | – | –
15 | CCc1cc(O)c(F)cc1-c1ccc2c(-c3nc4c([nH]3)CN(CC)[C@H](C(=O)N3CC(C)(N(C)C)C3)C4)n[nH]c2c1 [Example 8-23, (S)-(3-(dimethylamino)-3-methylazetidin-1-yl)(5-ethyl-2-(6-(2-ethyl-5-fluoro-4-hydroxyphenyl)-1H-indazol-3-yl)-4,5,6,7-tetrahydro-3H-imidazo[4,5-c]pyridin-6-yl)methanone] | – | – | 7.7 | pSTAT6 inhibition Assay 4 [3]: B (B represents between 40% and 60% inhibition)
16 | CCCN1Cc2[nH]c(-c3n[nH]c4cc(-c5cc(F)c(O)cc5CC)ccc34)nc2C[C@H]1C(=O)N1CC(N2CCCCC2)C1 [Example 8-5] | 0.2 | 25.1 | – | –
17 | CCc1cc(O)c(F)cc1-c1ccc2c(-c3nc4c([nH]3)CN(C)C(C(=O)N3CC(C)(N(C)C)C3)C4)n[nH]c2c1 (stereo not drawn) [Example 8-9] | 0.16 | – | 7.1 | Ki [2]: 0.05 nM
18 | CCc1cc(O)c(F)cc1-c1ccc2c(-c3nc4c([nH]3)CN(C(C)C)[C@@H](C(=O)N3CC(C)(N(C)C)C3)C4)n[nH]c2c1 [Example 8-18] | – | – | 4 | –
19 | CCc1cc(O)c(F)cc1-c1ccc2c(-c3nc4c([nH]3)CN(C(C)C)C(C(=O)N3CC(C)(N(C)C)C3)C4)n[nH]c2c1 (stereo not drawn) [Example 8-12] | – | – | 4 | Ki [2]: 0.06 nM
20 | CCc1cc(O)c(F)cc1-c1ccc2c(-c3nc4c([nH]3)CN(C)[C@H](C(=O)N3CC(N5CCCCC5)C3)C4)n[nH]c2c1 [Example 8-1] | – | 6.3 | – | Ki [2]: 0.06 nM
21 | CCc1cc(O)c(F)cc1-c1ccc2c(-c3nc4c([nH]3)CN(CC)[C@@H](C(=O)N3CC(N5CCCCC5)C3)C4)n[nH]c2c1 [Example 8-15] | – | 5.6 | – | Ki [5]: 0.03 nM; pSTAT6 inhibition Assay 4 [3]: C (C represents between 25% and 40% inhibition)
22 | CCc1cc(O)c(F)cc1-c1ccc2c(-c3nc4c([nH]3)CN(C)[C@H](C(=O)N3CC(N(C)C)C3)C4)n[nH]c2c1 [Example 8-2] | – | 12.6 | – | Ki [2]: 0.06 nM
23 | CCc1cc(O)c(F)cc1-c1ccc2c(-c3nc4c([nH]3)CN(CC)C(C(=O)N3CC(N(C)C)C3)C4)n[nH]c2c1 (stereo not drawn) [Example 8-8] | 0.28 | 5 | – | –
